Consider 13 compounds from paper PMC3755010 (Bioorganic & medicinal chemistry letters, 2012).

Some results are limits rather than exact numbers.

The target in one data set is rat mGlu5 receptor (Rattus norvegicus, UniProt P31424). Kind of data set: Calcium mobilization assay in HEK293 cells expressing the rat mGlu5 receptor. The class given is cell-based. The conditions noted are these: for loss in functional activity versus 6: relative to 6 (VU0357121); for improvement in potency versus 8b: relative to 8b; for EC50 (nM): calcium mobilization, HEK293 cells expressing rat mGlu5. (Calcium assays in cells follow changes in intracellular calcium, usually with a dye or a luminescent sensor.)
Sequence of rat mGlu5 receptor (P31424 21-1203): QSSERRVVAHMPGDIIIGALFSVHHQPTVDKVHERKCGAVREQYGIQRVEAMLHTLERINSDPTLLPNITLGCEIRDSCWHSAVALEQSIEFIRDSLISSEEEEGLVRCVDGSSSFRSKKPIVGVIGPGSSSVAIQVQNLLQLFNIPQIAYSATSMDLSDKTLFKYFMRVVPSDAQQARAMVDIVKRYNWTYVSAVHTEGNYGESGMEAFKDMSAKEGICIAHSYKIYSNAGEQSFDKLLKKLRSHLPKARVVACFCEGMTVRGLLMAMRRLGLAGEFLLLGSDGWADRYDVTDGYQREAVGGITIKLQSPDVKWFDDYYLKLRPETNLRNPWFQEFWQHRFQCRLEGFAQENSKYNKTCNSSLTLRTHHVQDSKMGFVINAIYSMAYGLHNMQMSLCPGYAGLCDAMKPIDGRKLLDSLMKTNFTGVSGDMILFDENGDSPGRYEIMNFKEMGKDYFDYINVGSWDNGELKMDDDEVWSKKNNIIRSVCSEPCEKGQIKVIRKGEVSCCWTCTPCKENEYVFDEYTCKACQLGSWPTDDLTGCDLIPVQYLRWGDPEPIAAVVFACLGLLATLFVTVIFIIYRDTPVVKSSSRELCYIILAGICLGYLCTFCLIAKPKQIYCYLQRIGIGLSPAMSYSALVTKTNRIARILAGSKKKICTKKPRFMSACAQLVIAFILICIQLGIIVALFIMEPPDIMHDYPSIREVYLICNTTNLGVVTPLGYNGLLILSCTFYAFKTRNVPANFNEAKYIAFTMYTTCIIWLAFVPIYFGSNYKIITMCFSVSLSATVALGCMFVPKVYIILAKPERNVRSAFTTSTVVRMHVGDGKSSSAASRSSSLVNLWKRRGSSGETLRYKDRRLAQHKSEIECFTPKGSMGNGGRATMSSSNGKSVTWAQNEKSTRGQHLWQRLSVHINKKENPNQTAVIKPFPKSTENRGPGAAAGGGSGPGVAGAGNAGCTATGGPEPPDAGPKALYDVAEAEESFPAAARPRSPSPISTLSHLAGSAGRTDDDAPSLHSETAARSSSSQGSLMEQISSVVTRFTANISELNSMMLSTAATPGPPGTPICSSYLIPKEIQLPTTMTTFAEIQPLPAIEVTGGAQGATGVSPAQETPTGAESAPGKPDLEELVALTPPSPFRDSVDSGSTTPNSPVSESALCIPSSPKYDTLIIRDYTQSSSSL

Data set [1] addresses T1, mGlu5 MPEP allosteric binding site (Rattus norvegicus, UniProt P31424). As to the kind of experiment: [3H]methoxyPEPy binding.
Data set [2] is described as follows: In vitro oxidative metabolism. The class given is in vitro ADME, rat.
The next data set concerns the target human mGlu5 receptor (Homo sapiens, UniProt P41594). As to the kind of experiment: Functional assay in lower expressing human mGlu5 receptor cell line. The class given is cell-based.
The nature of data set [3]: Non-crossover in vivo pharmacokinetic studies in rats. Also noted: species or system rat.
In data set [4] the target is wild-type rat mGlu5 receptor (Rattus norvegicus, UniProt P31424). As to the kind of experiment: Fold-shift of glutamate concentration-response curve at wild-type receptor. The class given is cell-based. The conditions noted are these: 1 μM compound.
Sequence of wild-type rat mGlu5 receptor (P31424 21-1203): as above
In data set [5] the test system is amphetamine-induced hyperlocomotion. As to the kind of experiment: Reversal of amphetamine-induced hyperlocomotion in rats. The class given is in vivo, rat. The note with it: rats, 100 mg/kg p.o., vehicle 20% β-CD.
Experiment in data set [6]: as above
The class given is in vivo, rat. The conditions noted are these: rat, brain (unbound), po, 100 mg/kg.

Data set [7] concerns mGlu5 MPEP site sensitive mutants (P654F, T780A, A809V). As to the kind of experiment: Fold-shift of glutamate CRC at MPEP site sensitive point mutants. The conditions noted are these: 1 μM compound, compared to wild-type rat mGlu5. The class given is cell-based.
For data set [8], the target named is T1, mGlu5 MPEP allosteric binding site. The note with it: cited from earlier work.

T1 sequence (P31424 21-1203): as above
Sequence of human mGlu5 receptor (P41594 21-1212): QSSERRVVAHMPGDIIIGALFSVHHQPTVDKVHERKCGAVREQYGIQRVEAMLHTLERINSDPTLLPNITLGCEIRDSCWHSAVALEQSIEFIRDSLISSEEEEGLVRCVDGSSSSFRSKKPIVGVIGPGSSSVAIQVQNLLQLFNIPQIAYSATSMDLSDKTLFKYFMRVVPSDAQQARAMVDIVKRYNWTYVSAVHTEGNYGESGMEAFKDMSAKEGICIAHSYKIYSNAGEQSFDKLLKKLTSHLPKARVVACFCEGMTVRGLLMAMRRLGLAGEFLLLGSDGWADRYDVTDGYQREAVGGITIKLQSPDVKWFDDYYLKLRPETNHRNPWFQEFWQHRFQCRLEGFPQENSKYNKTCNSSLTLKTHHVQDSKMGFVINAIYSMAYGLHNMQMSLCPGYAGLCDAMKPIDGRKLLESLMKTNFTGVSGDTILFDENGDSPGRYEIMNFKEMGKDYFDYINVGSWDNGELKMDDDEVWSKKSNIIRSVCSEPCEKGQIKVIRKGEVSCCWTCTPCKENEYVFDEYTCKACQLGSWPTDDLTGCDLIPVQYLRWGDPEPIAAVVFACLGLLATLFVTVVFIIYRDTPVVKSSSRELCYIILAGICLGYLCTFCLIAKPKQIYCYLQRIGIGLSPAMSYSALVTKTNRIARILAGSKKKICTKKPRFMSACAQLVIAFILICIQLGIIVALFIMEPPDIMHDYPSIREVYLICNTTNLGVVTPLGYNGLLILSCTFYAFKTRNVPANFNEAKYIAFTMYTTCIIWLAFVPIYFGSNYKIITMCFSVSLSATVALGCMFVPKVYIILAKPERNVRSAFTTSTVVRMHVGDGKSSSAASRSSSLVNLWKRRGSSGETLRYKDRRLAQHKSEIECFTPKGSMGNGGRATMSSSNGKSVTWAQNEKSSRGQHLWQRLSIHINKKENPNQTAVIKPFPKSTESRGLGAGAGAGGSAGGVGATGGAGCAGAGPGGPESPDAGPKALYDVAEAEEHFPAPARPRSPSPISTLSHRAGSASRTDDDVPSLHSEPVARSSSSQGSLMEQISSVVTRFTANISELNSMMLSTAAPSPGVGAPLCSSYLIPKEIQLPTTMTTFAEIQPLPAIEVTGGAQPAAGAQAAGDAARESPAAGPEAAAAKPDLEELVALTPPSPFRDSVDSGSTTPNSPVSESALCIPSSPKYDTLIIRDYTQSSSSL

For `CCCCOc1ccc(C(=O)NC2CCCCC2)cc1` [7a], at rat mGlu5 receptor, the “loss in functional activity versus 6” value is listed as over 15 fold.
With `CCCCOc1ccc(C(=O)NC2CCC2)cc1` [7c], the “loss in functional activity versus 6” value on rat mGlu5 receptor was over 15 fold.
On to `CCCCOc1ccc(C(=O)Nc2ccc(F)cc2F)cn1` [8a], for which the “loss in functional activity versus 6” value at rat mGlu5 receptor stood at 22 fold.
For `CCCCCOc1ccc(C(=O)NC2CCCCC2)cn1` [8d], on rat mGlu5 receptor, the “improvement in potency versus 8b” value is given as “fivefold”.
On to `CCCOc1ccc(C(=O)NC2CCCCC2)cn1` [8e], for which the “EC50 (nM)” value on rat mGlu5 receptor is recorded as “complete loss of potentiation”.
For the compound `CCCC(C)Oc1ccc(C(=O)NC2CCCCC2)cn1` (stereo not shown) [8f], the “EC50 (nM)” value at rat mGlu5 receptor is reported as “unproductive”.
Take `CCC(C)COc1ccc(C(=O)NC2CCCCC2)cn1` (stereo not shown) [8g]: the “improvement in potency versus 8b” value on rat mGlu5 receptor is “twofold”.
On to `O=C(NC1CCCCC1)c1ccc(OCc2ccccc2)nc1` [8k], for which the “estimated divergence of MPEP site interaction from functional activity” value in [1] (21% displacement at 10 μM versus functional EC50) was over 100 fold. In addition, the “oxidative metabolism in rat microsomal incubations” value in data set [2] (soft-spot analysis, rat microsomes) is reported as “extensive oxidative metabolism”.
Consider `O=C(NC1CCCCC1)c1ccc(OCc2ccc(F)cc2)nc1` [8m], for which the “loss in activity relative to 8k” value on rat mGlu5 receptor (relative to 8k) was “sevenfold”.
For `O=C(N[C@@H](C1CC1)C(F)(F)F)c1ccc(OCc2cccc(F)c2)nc1` [8u], the “metabolic stability in vitro” value in [2] (data not shown) is on record as “relatively stable metabolically in vitro”.
Broadly, the clearance is the volume of plasma or blood freed of the substance per unit of time. Read a high clearance as a high capacity for elimination. For `C[C@@H](NC(=O)c1ccc(OCc2cccc(F)c2)nc1)C(C)(C)C` [8v], the “agonism activity for compound alone” value on human mGlu5 receptor is “no detected agonism activity”. Moreover, the “increase in activity over cyclohexyl analog R-8t” value at rat mGlu5 receptor (high expressing rat receptor HEK cell line) was “twofold”. The compound also had a clearance in data set [3] (rat, plasma, iv, 1 mg/kg) of 13.7 mL/min/kg. The “first-pass effect (Ehep)” value in data set [3] (rats, snapshot oral PK, portal vein vs plasma) amounted to 0.41. Further, the “displacement of the MPEP-site radioligand [3H]-methoxyPEPy (extent)” value in data set [1] is listed as “full displacement”. Further, the “shift of the glutamate CRC” value in data set [4] is “fivefold”. For the same compound, the “reversal of amphetamine-induced hyperlocomotion” value in data set [5] was “robust effects in reversal of hyperlocomotion”. The concentration at 90 min in data set [6] is about 74 nM. Moreover, in data set [7], the “effect of MPEP-site point mutations on shift of the glutamate CRC” value is recorded as “reduced the ability”.
Take `C[C@@H](NC(=O)c1ccc(OCc2cccc(F)c2)cc1)C(C)(C)C` [8w]: at rat mGlu5 receptor (direct comparator to 8v), the “EC50 relative to 8v” value is on record as ~ 2.5 fold.
For the compound `CCCCOc1ccc(C(=O)Nc2ccc(F)cc2F)cc1` [compound 6], the “displacement of the MPEP-site ligand [3H]methoxyPEPy” value in data set [8] is recorded as “not observed to displace”.
